{
  "source": "patent EP1053750A1",
  "about": "“Use of proteasome-inhibitor for the induction of programmed cell death (apoptosis)” (Max-Planck-Gesellschaft zur Förderung der Wissenschaften …, priority 1999, dated 2000)",
  "key": {"MDCK epithelial cells": {"system": "MDCK epithelial cells", "test": "Viability assay (MIT assay), MDCK cells", "format": "cell-based, canine", "details": "for EC50: Canis lupus familiaris, 48 h, 48 h incubation", "experimental": "The indicated values are expressed as the percentage of absorbance at 570 nm relative to the absorbance obtained by DMSO treated (control) cells.\nMadin Darby canine kidney epithelial cells (MDCK; ATCC CLL-34) were grown in Dulbecco's Modified Eagle's Medium (DMEM) containing 10% FCS, penicillin and streptomycin.\nBriefly, the cells were plated either at 3000 cells/well (low density) or 30000 cells/well (high density) onto 96 well plates and grown over night. […] The formazan cystals generated were subsequently dissolved in DMSO and absorption measured at 570 - 650 nm."}, "HUE cells [1]": {"system": "HUE cells", "test": "Viability assay (MIT assay), HUE cells", "format": "cell-based, human", "details": "for EC50: Homo sapiens, 48 h, 48 h incubation"}, "HUE cells [2]": {"system": "HUE cells", "test": "Apoptotic morphology (phase contrast, Hoechst 33342), HUE cells", "format": "cell-based, human", "details": "subconfluent HUE cells, 50 µM, 18 - 24 hours", "text": "Phase contrast pictures are shown on the left, and identical areas which display the nuclear morphology after Hoechst staining are shown on the right. Arrowheads point at nuclei with apoptotic morphology. Scale bars are 50 µm.\nPrimary bovine aortic endothelial cells (BAE) were isolated from bovine pulmonary aorta according to the method of Schwartz (In Vitro 14 (1978), 966 - 980) and maintained in MDCB131 medium supplemented with 8% fetal calf serum (FCS), penicillin (100 lU/ml) and streptomycin (100 µg/ml) at 5% CO2. Human umbilical vein endothelial cells (HUE), an immortalized human umbilical vein endothelial cell line (ATCC CRL-1730) were cultured under the same conditions. Madin Darby canine kidney epithelial cells (MDCK; ATCC CLL-34) were grown in Dulbecco's Modified Eagle's Medium (DMEM) containing 10% FCS, penicillin and streptomycin."}, "HUE cells [3]": {"system": "HUE cells", "test": "DNA fragmentation assay", "format": "cell-based, human", "details": "10 µM PSI for 18 hours, agarose gel", "experimental": "• a. Analysis of PSI-induced DNA fragmentation by agarose gel electrophoresis. […] Neither caspase inhibitor (Ac-YVAD-CHO 250 µM, lane 4; Ac-DEVD-CHO 250 µM, lane 5) nor DMSO (lane 6) induced the characteristic pattern of DNA fragmentation. M1 and M2: DNA size markers (kb). • b. Immunoblot analysis of HUE cell lysates after incubation with PSI. […] Equal loading was controlled by using an antibody directed against GAPDH enzyme.\nHUE cells which had been plated at 20000 cells/cm^2 24 hours before the assay, were treated with 250 µM of the caspase inhibitors Ac-YVAD-CHO or Ac-DEVO-CHO (Peptide Institute, Osaka, Japan) or the equivalent volume of dimethylsulfoxide (DMSO) for 1 h prior to additon of the proteasomal inhibitors. Incubation of the cells was continued for a further 18 h and the extent of DNA fragmentation was analyzed as previously described with some minor modifications (Hockenberry et al., Nature 348 (1990), 334 - 336). Briefly, both the floating cells and the adherent cells which were detached by trypsinization, were lysed in a solution containing 0.5% Triton X100, 10 mM EDTA and 10 mM Tris-HCL pH 7.5 for 30 min on ice. To separate the intact chromatin from the oligonucleosomal fragments, the lysate was centrifuged at 13000 g for 10 min at 4°C and the resulting supernatant was sequentially extracted with phenol followed by phenol/chloroform/iso-amylalcohol (25:24:1; v/v/v). Low molecular weight DNA was precipitated by the addition of 0.5 vol 7 M ammonium acetate and 2.5 vol ice-cold ethanol. The precipitate was washed in 75% ethanol, dissolved in TE-buffer, containing RNase A (20 µg/ml; Boehringer Mannheim), incubated for 30 min at 37°C and subjected to electrophoresis on 1.5% agarose gels."}, "[4]": {"system": "chorioallantoic membrane (CAM)", "test": "Chorioallantoic membrane (CAM) assay", "format": "in vivo, chick embryo", "details": "for %CAMs with non-perfused areas: Luconyl Blue injection, positive/total CAMs in parenthesis", "experimental": "All experiments with chick embryos were performed in ovo. After aspiration of 2 ml of eggwhite from the pointed side of the egg, a window was cut into the eggshell on embryonic day 3 or 4 (E3, E4). The eggs were resealed with tape and further incubated until E9. […] Approximately 1 cm^2-pieces of the CAM were then cut out, washed in PBS and fixed in Carnoy's solution. After dehydration and embedding in paraffin, 8 µm sections were cut and stained with an anti-BrdU mouse monoclonal antibody (Boehringer Mannheim, Germany) according to the manufacturer's instructions. Counterstaining of the sections was performed with Gill's hematoxylin (Serva, Heidelberg, Germany). Sections were mounted using Aquamount (Merck, Darmstadt, Germany) and photos were taken with a Zeiss Axiophot microscope. […] Control pellets were prepared with an equal amount of Leupeptin or with DMSO as vehicle, respectively. To aid in the visualization of the vascular system, embryos and CAMs were then injected using pulled glass capillaries with 10% Luconyl Blue (BASF, Ludwigshafen, Germany) in PBS, and photographs were taken using a stereomicroscope with camera adapter.\nIn eight eggs the windows of the egg shells were enlarged under an operation microscope. After a peripheral incision in the CAM was made, the main artery was incised with a pair of ocular scissors, and a glass capillary (World Precision Instruments, Inc. Germany) pulled to the adequate diameter, was inserted and sealed with a drop of cyanoacrylate (Loctite®). Efflux was enabled by making another incision into a main draining vessel. The vascular system was flushed with up to 5 ml of prewarmed (37 -39°C) physiological saline (0.9% NaCI) under mechanically controlled pressure. […] After complete polymerization of the casting solution, the membranes were dissected and macerated in a solution of 5% potassium hydroxide (Fluka, Neu-Ulm, Germany) at 40°C for 1 - 2 days. The resulting corrosion casts of all specimens were freeze dried, mounted and sputter coated. Examination of the microvascular corrosion casts were carried out with a Stereoscan Mk-250 scanning electron microscope (Cambridge, England). Alternatively, in situ fixed CAM segments were cut out, processed for semi-thin sectioning and stained with methylene blue and Azur II. Selected specimens were trimmed for ultrathin sectioning, and counterstained with uranyl acetate and lead citrate."}, "caspase-3 like activity": {"system": "caspase-3 like activity", "test": "Caspase activity in lysates of treated HUE cells, substrate Ac-DEVD-AMC", "format": "cell-based, human", "details": "HUE cell lysates, 50 µM", "description": "Subconfluent endothelial cells were incubated with the inhibitors for the indicated times, lysed and caspase activities determined using Ac-DEVD-AMC for caspase-3-like enzymes and Ac-YVAD-AMC for caspase-1-like activities as described in the Material and Methods section (PSI, filled circles; LLnM, open square; E64, open triangles; Leupeptin, filled triangles; Pepstatin, filled squares). The specific caspase activities are shown as pmol of substrate hydrolyzed/min per µg of protein.\nHUE cells (8 x 10^5) were plated onto 10 cm plastic dishes, allowed to attach overnight, and inhibitors were added to a final concentration of 50 µM for the times indicated in Fig. 4. DMSO, which served as the vehicle, was added to a final concentration of 0.1%. Floating and adherent cells were then harvested, lysed in Buffer I (1% Triton X100, 10 mM KCl, 20 mM HEPES pH 7.4, 1.5 mM MgCl2, 0.2 mM EGTA, 1 mM PMSF), snap frozen in liquid nitrogen and stored at -80°C until required. Lysates were centrifuged at 13000 g for 5 min at 4°C, the supernatants collected and protein concentrations determined using the BCA assay. […] Specific activity was expressed as pmol AMC liberated per min and per µg protein in comparison to a standard curve calculated from the amount of free AMC (SIGMA, Deisenhofen, Germany)."}, "BAE cells": {"system": "BAE cells", "test": "Viability assay (MIT assay), BAE cells", "format": "cell-based, bovine", "details": "for EC50: Bos taurus"}, "[5]": {"details": "sub (low density, subconfluent)"}, "[6]": {"details": "EC50 confluent versus subconfluent, 2880 min"}},
  "note": "Peptide text beside a SMILES is read from it. * marks the point of attachment. Cbz = O=C(OCc1ccccc1)*; OtBu = CC(C)(C)O*",
  "data": [
    {"compound": "CC[C@H](C)[C@H](NC(=O)OCc1ccccc1)C(=O)N[C@@H](CCC(=O)OC(C)(C)C)C(=O)N[C@@H](C)C(=O)N[C@H](C=O)CC(C)C", "note": "[PSI, carbobenzoxy-L-isoleucyl-y-t-butyl-L-glutamyl-L-alanyl-L-leucinal] (Cbz-IE(OtBu)AL-aldehyde)", "values": [
      {"measurement": "EC50", "setting": "MDCK epithelial cells; con (confluent)", "value": 3.1, "unit": "µM"},
      {"measurement": "EC50", "setting": "MDCK epithelial cells; [5]", "value": 0.016, "unit": "µM"},
      {"measurement": "x difference", "setting": "MDCK epithelial cells; [6]", "value": 194, "unit": "fold"},
      {"measurement": "x difference", "setting": "HUE cells [1]; [6]", "value": 1119, "unit": "fold"},
      {"measurement": "EC50", "setting": "HUE cells [1]; con (grown to confluency)", "value": 7.83, "unit": "µM"},
      {"measurement": "EC50", "setting": "HUE cells [1]; [5]", "value": 0.007, "unit": "µM"},
      {"measurement": "induction of apoptosis (nuclear morphology)", "setting": "HUE cells [2]", "value": "Induction of apoptosis"},
      {"measurement": "DNA fragmentation (DNA ladder formation)", "setting": "HUE cells [3]", "value": "induced DNA ladder formation"},
      {"measurement": "%CAMs with non-perfused areas", "setting": "[4]; 0.31 µg/disc, methylcellulose disc on CAM for 48 h", "value": "0(0/10) %"},
      {"measurement": "%CAMs with non-perfused areas", "setting": "[4]; 1.0 µg/disc, methylcellulose disc on CAM for 48 h", "value": "56.3 (18/32) %"},
      {"measurement": "%CAMs with non-perfused areas", "setting": "[4]; 3.1 µg/disc, methylcellulose disc on CAM for 48 h", "value": "85.7 (12/14) %"},
      {"measurement": "densities of the capillary plexus and first order vessels (corrosion casts)", "setting": "[4]; CAM area directly under the disc", "value": "rarified"},
      {"measurement": "TUNEL labeling of cell nuclei in CAM sections", "setting": "[4]; methylcellulose disc on CAM for 48 h, cells in close contact with the disc", "value": "Intense labeling"},
      {"measurement": "time of maximum of Ac-DEVD-AMC cleavage", "setting": "caspase-3 like activity", "value": 15, "unit": "h"},
      {"measurement": "x difference", "setting": "BAE cells; BAE, EC50 confluent versus subconfluent, 2880 min", "value": 340, "unit": "fold"},
      {"measurement": "EC50", "setting": "BAE cells; 96 h, BAE cells seeded at high density, grown to confluency for 4 days", "value": 8.15, "unit": "µM"},
      {"measurement": "EC50", "setting": "BAE cells; BAE, con (grown to confluency for 4 days), 48 h incubation", "value": 8.15, "unit": "µM"},
      {"measurement": "EC50", "setting": "BAE cells; BAE, sub (low density, subconfluent), 48 h incubation, viability reduced to 50% of DMSO control", "value": 0.024, "unit": "µM"}
    ]}
  ]
}
